Assay results from US20120214847A1, “2-[1-PHENYL-5-HYDROXY-4a-SUBSTITUTED-HEXAHYDROCYCLOPENTA[F]INDAZOL-5-YL]ETHYL PHENYL DERIVATIVES AS GLUCOCORTICOID RECEPTOR LIGANDS” (Merck Sharp & Dohme Corp., priority 2009, published 2012).

target: T1, glucocorticoid receptor (Homo sapiens, UniProt P04150); test: Ligand binding assay (GRBind), 3H-dexamethasone displacement in HeLa cell lysate; details: 3H-DEX tracer
T1 construct: endogenous in cells; host or cells: HeLa (ATCC) cell lysate supernatant
T1 sequence (P04150 1-777): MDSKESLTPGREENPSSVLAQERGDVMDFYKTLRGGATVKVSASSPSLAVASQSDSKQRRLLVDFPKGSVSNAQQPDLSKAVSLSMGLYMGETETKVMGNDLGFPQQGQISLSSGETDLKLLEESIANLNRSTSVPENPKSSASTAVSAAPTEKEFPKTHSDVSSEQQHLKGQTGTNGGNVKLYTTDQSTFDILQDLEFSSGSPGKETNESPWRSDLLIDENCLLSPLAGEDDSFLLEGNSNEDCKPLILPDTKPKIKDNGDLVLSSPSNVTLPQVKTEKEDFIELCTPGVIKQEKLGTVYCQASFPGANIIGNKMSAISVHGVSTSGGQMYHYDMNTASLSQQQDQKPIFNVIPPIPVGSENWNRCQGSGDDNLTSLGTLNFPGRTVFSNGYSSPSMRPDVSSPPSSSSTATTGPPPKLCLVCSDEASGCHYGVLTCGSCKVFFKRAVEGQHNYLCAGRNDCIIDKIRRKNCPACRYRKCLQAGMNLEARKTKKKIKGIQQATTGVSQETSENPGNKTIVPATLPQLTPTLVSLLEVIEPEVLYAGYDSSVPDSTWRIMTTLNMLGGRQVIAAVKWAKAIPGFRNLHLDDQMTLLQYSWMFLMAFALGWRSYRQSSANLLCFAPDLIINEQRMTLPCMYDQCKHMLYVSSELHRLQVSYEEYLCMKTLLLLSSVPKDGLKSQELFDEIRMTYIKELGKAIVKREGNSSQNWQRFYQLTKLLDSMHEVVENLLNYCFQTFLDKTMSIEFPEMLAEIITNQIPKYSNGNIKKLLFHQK
Outline: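 Cytosolic supernatant from HeLa cells in TEGM buffer (pH 7.2, with molybdate) was incubated overnight at 4 °C with 3H-dexamethasone (6 nM trace solution) and serially diluted compound, with 2% ethanol. Bound receptor was captured on hydroxylapatite, filtered and counted by scintillation. IC50s were calculated using dexamethasone as reference.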

Ki | SMILES
1.5 nM | NC(=O)[C@H](F)c1c(F)cccc1CC[C@]1(O)CCC2=Cc3c(cnn3-c3ccc(F)cc3)C[C@@]21C1CC1 [Example 57, (2R)-2-(2-{2-[(4aR,5R)-4a-Cyclopropyl-1-(4-fluorophenyl)-5-hydroxy-1,4,4a,5,6,7-hexahydrocyclopenta[f]indazol-5-yl]ethyl}-6-fluorophenyl)-2-fluoroethanamide]
2.33 nM | CC[C@]12Cc3cnn(-c4ccc(F)cc4)c3C=C1CC[C@@]2(O)CCc1cccc(F)c1CC(N)=O [Example 60, 2-(2-{2-[(4aS,5R)-4a-Ethyl-1-(4-fluorophenyl)-5-hydroxy-1,4,4a,5,6,7-hexahydrocyclopenta[f]indazol-5-yl]ethyl}-6-fluorophenyl)acetamide]
4.06 nM | CC[C@]12Cc3cnn(-c4ccc(F)cc4)c3C=C1CC[C@@]2(O)CCc1ncccc1S(=O)(=O)C(C)C [Example 62, (4aS,5R)-4a-Ethyl-1-(4-fluorophenyl)-5-{2-[3-(propan-2-ylsulfonyl)pyridin-2-yl]ethyl}-1,4,4a,5,6,7-hexahydrocyclopenta[f]indazol-5-ol]
1.69 nM | O=S(=O)(c1ccccc1CC[C@]1(O)CCC2=Cc3c(cnn3-c3ccc(F)cc3)C[C@@]21C1CC1)C1CC1 [Example 63, (4aR,5R)-4a-Cyclopropyl-5-{2-[2-(cyclopropylsulfonyl)phenyl]ethyl}-1-(4-fluorophenyl)-1,4,4a,5,6,7-hexahydrocyclopenta[f]indazol-5-ol]
11.5 nM | CC[C@]12Cc3cnn(-c4ccc(F)cc4)c3C=C1CC[C@@]2(O)CCc1nccc(OC)c1CC(N)=O [Example 64, 2-(2-{2-[(4aS,5R)-4a-Ethyl-1-(4-fluorophenyl)-5-hydroxy-1,4,4a,5,6,7-hexahydrocyclopenta[f]indazol-5-yl]ethyl}-4-methoxypyridin-3-yl)acetamide]

More lines, now with the values behind:

SMILES | Ki
NC(=O)c1c(C(F)(F)F)ccnc1CC[C@]1(O)CCC2=Cc3c(cnn3-c3ccc(F)cc3)C[C@@]21C1CC1 [Example 55, 2-{2-[(4aR,5R)-4a-Cyclopropyl-1-(4-fluorophenyl)-5-hydroxy-1,4,4a,5,6,7-hexahydrocyclopenta[f]indaozol-5-yl]ethyl}-4-(trifluoromethyl)pyridine-3-carboxamide] | 2.24 nM
NC(=O)Cc1ccccc1CC[C@]1(O)CCC2=Cc3c(cnn3-c3ccc(F)cc3)C[C@@]21C1CC1 [Example 56, 2-(2-{2-[(4aR,5S)-4a-Cyclopropyl-1-(4-fluorophenyl)-5-hydroxy-1,4,4a,5,6,7-hexahydrocyclopenta[f]indazol-5-yl]ethyl}phenyl)acetamide] | 1.61 nM
CS(=O)(=O)c1ccccc1CC[C@]1(O)CCC2=Cc3c(cnn3-c3ccc(F)cc3)C[C@@]21C1CC1 [Example 58, (4aR,5R)-4a-Cyclopropyl-1-(4-fluorophenyl)-5-{2-[2-(methylsulfonyl)phenyl]ethyl}-1,4,4a,5,6,7-hexahydrocyclopenta[f]indazol-5-ol] | 0.88 nM
CCS(=O)(=O)c1ccccc1CC[C@]1(O)CCC2=Cc3c(cnn3-c3ccc(F)cc3)C[C@@]21C1CC1 [Example 59, (4aR,5R)-4a-Cyclopropyl-5-{2-[2-(ethylsulfonyl)phenyl]ethyl}-1-(4-fluorophenyl)-1,4,4a,5,6,7-hexahydrocyclopenta[f]indazol-5-ol] | 1.36 nM
NC(=O)Cc1c(F)cccc1CC[C@]1(O)CCC2=Cc3c(cnn3-c3ccc(F)cc3)C[C@@]21C1CC1 [Example 61, 2-(2-{2-[(4aR,5R)-4a-Cyclopropyl-1-(4-fluorophenyl)-5-hydroxy-1,4,4a,5,6,7-hexahydrocyclopenta[f]indazol-5-yl]ethyl}-6-fluorophenyl)acetamide] | 2.08 nM
CC[C@]12Cc3cnn(-c4ccc(F)cc4)c3C=C1CC[C@@]2(O)CCc1nccc(OC)c1C(F)C(N)=O (stereo partly drawn) [Example 65, 2-(2-{2-[(4aS,5R)-4a-Ethyl-1-(4-fluorophenyl)-5-hydroxy-1,4,4a,5,6,7-hexahydrocyclopenta[f]indazol-5-yl]ethyl}-4-methoxypyridin-3-yl)-2-fluoroacetamide] | 9.2 nM
